Data: publication PMC11233931, “Remodeling tumor‐associated macrophage for anti‐cancer effects by rational design of irreversible inhibition of mitogen‐activated protein kinase‐activated protein kinase 2” (MedComm, 2024)
Read-outs that look alike come from different tables or passages of the source.

How the values were obtained:
Assay in all cases: Eurofins kinase selectivity profile against 380 other human recombinant kinases (Table S2)
Type in all cases: biochemical
[1] = target: T1, 380 human recombinant protein kinases (Homo sapiens, UniProt Q96QT4); conditions: ChaK1(h), read-out: Inhibition rate
T1 construct: purchased Eurofins (Celle Lévescault)
How it was run: (§1)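 Values come from a contract kinase-profiling service that tested the compound at multiple concentrations across 380 recombinant human kinases, as an off-target check against the MK2 activity.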

[2] = target: T2, 380 human recombinant protein kinases (Homo sapiens, UniProt Q9HCP0); conditions: CK1γ1(h), read-out: Inhibition rate
T2 construct: purchased Eurofins (Celle Lévescault)
How it was run: as §1

[3] = target: T3, 380 human recombinant protein kinases (Homo sapiens, UniProt O00311); conditions: Cdc7/cyclinB1(h), read-out: Inhibition rate
T3 construct: purchased Eurofins (Celle Lévescault)
How it was run: as §1

[4] = target: T4, 380 human recombinant protein kinases (Homo sapiens, UniProt P68400); conditions: read-out: Inhibition rate; for inhibition at 0.01 µM: 10 nM; for inhibition at 0.1 µM: 100 nM; for inhibition at 1 µM: 1000 nM
T4 construct: purchased Eurofins (Celle Lévescault)
How it was run: as §1

[5] = target: T5, 380 human recombinant protein kinases (Homo sapiens, UniProt P42681); conditions: Txk(h), read-out: Inhibition rate (%)
T5 construct: purchased Eurofins (Celle Lévescault)
T5 sequence (P42681 1-527): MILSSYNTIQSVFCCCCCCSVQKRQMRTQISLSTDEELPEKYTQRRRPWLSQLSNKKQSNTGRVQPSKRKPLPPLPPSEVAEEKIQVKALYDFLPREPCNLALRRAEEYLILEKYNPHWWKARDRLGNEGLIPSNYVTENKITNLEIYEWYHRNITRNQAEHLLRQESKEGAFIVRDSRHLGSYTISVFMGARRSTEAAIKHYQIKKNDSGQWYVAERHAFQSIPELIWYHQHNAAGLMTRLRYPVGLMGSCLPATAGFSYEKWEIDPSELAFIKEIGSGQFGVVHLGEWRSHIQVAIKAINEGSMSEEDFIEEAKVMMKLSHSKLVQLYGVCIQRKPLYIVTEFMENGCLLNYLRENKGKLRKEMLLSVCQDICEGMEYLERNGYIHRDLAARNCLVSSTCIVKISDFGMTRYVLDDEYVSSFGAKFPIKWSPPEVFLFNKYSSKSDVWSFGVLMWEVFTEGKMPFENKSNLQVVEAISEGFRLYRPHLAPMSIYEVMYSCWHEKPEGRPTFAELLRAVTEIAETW
How it was run: as §1

[6] = target: T6, 380 human recombinant protein kinases (Homo sapiens, UniProt P36897); conditions: TGFBR1(h), read-out: Inhibition rate (%)
T6 construct: purchased Eurofins (Celle Lévescault)
T6 sequence (P36897 34-503): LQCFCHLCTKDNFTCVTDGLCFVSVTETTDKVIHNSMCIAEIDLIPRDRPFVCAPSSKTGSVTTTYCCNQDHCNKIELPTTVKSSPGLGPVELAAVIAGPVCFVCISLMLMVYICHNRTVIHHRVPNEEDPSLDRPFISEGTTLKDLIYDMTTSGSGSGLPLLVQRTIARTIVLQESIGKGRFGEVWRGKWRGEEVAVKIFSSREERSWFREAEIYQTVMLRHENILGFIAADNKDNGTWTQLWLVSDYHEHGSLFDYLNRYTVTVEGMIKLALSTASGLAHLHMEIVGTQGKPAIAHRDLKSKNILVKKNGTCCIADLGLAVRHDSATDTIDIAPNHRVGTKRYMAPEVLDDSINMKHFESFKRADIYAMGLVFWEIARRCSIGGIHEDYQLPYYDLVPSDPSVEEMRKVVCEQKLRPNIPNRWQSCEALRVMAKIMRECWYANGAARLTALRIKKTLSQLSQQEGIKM
How it was run: as §1

[7] = target: T7, 380 human recombinant protein kinases (Homo sapiens, UniProt Q96PF2); conditions: TSSK2(h), read-out: Inhibition rate (%)
T7 construct: purchased Eurofins (Celle Lévescault)
T7 sequence (Q96PF2 1-358): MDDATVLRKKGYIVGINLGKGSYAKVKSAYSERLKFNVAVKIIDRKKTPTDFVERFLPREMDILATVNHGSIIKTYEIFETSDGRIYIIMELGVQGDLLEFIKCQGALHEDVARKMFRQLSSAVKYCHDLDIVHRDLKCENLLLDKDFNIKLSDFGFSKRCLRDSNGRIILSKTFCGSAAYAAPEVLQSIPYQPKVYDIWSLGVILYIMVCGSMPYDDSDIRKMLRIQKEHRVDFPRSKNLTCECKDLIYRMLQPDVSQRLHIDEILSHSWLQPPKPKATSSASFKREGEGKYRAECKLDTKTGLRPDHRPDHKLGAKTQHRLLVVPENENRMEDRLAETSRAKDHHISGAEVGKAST
How it was run: as §1

[8] = target: T8, 380 human recombinant protein kinases (Homo sapiens, UniProt Q9H0K1); conditions: SIK2(h), read-out: Inhibition rate (%)
T8 construct: purchased Eurofins (Celle Lévescault)
How it was run: as §1

T8 sequence (Q9H0K1 whole entry): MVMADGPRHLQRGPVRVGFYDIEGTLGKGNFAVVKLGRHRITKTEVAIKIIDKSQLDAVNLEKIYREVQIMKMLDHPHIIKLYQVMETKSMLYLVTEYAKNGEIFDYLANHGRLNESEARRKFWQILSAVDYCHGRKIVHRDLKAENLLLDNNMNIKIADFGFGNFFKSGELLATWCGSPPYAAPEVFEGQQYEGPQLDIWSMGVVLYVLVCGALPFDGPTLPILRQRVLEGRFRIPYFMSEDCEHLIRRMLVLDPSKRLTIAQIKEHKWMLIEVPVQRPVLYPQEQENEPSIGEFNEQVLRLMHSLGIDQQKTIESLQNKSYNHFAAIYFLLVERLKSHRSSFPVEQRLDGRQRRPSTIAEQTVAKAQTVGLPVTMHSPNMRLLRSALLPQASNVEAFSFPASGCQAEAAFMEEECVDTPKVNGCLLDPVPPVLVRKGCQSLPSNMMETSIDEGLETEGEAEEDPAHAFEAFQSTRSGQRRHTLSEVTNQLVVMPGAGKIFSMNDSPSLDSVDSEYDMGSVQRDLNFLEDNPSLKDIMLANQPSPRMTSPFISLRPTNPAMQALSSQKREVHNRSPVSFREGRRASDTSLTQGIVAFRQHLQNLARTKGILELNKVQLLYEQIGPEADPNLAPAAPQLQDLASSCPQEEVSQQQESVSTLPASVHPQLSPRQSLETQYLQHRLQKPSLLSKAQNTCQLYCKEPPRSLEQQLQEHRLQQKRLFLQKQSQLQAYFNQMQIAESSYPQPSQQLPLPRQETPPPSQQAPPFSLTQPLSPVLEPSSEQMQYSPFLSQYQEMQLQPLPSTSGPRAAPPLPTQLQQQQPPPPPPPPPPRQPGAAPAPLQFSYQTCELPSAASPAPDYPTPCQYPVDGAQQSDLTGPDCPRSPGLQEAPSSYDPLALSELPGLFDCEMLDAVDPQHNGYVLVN
T1 sequence (Q96QT4 whole entry): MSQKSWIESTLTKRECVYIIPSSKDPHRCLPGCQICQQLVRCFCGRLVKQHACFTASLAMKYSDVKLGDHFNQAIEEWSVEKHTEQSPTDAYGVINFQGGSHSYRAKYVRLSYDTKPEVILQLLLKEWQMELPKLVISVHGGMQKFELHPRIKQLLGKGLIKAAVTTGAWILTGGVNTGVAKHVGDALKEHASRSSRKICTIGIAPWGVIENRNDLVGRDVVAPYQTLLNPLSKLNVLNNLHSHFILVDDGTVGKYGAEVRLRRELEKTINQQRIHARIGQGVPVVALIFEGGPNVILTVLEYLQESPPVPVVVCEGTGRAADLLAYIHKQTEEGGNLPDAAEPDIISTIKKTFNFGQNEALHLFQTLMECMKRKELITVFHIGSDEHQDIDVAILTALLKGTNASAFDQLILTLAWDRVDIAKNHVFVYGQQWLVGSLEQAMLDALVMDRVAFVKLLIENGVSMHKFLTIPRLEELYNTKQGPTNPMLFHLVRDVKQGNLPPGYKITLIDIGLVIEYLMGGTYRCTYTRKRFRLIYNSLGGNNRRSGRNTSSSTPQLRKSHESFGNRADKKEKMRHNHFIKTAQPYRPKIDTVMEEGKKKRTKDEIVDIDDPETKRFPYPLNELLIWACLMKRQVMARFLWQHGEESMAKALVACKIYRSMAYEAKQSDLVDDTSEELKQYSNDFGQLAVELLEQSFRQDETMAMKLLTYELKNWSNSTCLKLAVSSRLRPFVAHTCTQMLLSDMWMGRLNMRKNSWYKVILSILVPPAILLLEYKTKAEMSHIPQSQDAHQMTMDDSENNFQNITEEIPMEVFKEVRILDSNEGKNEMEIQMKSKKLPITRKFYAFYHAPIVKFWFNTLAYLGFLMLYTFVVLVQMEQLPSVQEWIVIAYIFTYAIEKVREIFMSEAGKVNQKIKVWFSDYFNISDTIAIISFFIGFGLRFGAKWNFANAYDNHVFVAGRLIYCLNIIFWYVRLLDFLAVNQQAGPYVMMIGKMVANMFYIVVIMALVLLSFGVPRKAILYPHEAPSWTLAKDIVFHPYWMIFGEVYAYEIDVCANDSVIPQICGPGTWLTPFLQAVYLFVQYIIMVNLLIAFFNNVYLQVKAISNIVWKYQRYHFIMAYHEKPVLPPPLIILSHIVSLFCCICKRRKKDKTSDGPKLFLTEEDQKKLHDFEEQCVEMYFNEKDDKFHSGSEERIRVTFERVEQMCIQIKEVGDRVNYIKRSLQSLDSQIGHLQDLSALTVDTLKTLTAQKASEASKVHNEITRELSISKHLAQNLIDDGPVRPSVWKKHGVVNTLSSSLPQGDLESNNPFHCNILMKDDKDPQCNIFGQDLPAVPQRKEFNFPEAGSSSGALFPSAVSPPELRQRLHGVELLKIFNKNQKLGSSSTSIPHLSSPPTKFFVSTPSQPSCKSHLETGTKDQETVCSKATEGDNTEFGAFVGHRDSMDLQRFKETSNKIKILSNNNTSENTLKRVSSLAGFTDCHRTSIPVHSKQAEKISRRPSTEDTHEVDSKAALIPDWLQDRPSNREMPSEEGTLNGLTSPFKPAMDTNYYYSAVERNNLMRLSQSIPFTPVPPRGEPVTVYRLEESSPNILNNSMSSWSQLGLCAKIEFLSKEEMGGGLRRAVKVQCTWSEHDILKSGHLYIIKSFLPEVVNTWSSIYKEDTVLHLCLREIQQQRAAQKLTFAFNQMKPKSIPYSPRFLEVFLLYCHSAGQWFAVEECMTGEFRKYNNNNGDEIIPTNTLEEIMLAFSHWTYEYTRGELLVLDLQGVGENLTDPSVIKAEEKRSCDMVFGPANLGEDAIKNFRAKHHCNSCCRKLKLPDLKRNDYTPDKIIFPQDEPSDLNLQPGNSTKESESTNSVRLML
T3 sequence (O00311 whole entry): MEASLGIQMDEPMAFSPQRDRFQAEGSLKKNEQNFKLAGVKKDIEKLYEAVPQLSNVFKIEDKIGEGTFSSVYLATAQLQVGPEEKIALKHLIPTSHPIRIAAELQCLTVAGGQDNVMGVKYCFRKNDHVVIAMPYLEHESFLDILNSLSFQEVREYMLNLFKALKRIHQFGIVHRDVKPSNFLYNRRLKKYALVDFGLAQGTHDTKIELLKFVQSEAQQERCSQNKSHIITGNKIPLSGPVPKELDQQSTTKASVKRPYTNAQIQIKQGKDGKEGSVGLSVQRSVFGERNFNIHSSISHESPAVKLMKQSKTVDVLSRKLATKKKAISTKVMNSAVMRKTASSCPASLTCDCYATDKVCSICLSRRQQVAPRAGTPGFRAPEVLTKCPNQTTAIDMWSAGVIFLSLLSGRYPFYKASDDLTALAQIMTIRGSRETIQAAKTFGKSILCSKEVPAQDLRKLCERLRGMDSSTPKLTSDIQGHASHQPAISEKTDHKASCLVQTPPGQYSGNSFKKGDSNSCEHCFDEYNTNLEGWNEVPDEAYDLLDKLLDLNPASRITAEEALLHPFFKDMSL
T2 sequence (Q9HCP0 whole entry): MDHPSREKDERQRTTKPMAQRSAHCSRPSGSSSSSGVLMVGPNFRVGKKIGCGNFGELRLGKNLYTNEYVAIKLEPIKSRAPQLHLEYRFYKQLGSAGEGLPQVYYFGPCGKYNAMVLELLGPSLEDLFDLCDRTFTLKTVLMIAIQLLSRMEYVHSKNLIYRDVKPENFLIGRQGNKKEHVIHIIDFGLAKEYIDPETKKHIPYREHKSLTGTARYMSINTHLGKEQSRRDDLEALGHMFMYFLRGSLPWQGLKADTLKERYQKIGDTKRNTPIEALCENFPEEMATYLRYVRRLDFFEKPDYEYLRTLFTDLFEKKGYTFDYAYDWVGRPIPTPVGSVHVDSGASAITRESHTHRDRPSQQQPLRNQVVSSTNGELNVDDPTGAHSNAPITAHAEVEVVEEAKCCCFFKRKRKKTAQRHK
T4 sequence (P68400 whole entry): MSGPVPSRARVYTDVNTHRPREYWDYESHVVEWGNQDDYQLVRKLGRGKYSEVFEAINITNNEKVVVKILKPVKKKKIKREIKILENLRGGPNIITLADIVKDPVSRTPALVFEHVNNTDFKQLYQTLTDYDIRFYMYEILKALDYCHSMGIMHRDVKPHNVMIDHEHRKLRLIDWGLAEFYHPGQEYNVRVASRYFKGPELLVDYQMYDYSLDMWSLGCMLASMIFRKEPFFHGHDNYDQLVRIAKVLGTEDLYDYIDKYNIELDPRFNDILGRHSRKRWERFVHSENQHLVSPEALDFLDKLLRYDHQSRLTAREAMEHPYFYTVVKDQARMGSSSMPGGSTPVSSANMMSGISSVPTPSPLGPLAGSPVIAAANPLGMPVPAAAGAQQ

Molecule `C=CC(=O)Nc1cc(-c2cc(-c3cc4c([nH]3)CCNC4=O)ccn2)ccc1OC(F)(F)F` [compound 11] has an inhibition at 0.01 µM ([1]; 10 nM) of -7%, an inhibition at 0.1 µM ([1]; 100 nM) of 1% and an inhibition at 1 µM ([1]; 1000 nM) of -5%. For the same molecule, the inhibition at 0.01 µM ([2]; 10 nM) was 0%, the inhibition at 0.1 µM ([2]; 100 nM) was 14% and the inhibition at 1 µM ([2]; 1000 nM) was 56%. The inhibition at 0.01 µM ([3]; 10 nM) was 8%, the inhibition at 0.1 µM ([3]; 100 nM) was 16% and the inhibition at 1 µM ([3]; 1000 nM) was 22%. It also gave an inhibition at 0.01 µM ([4]; CK2(h)) of -3%, an inhibition at 0.1 µM ([4]; CK2(h)) of -1% and an inhibition at 1 µM ([4]; CK2(h)) of 0%. For the same molecule, the inhibition at 0.01 µM ([4]; CK2α1(h)) was -9%, the inhibition at 0.1 µM ([4]; CK2α1(h)) was -2% and the inhibition at 1 µM ([4]; CK2α1(h)) was 9%. It also gave an inhibition at 0.01 µM ([5]; 10 nM) of -3%, an inhibition at 0.1 µM ([5]; 100 nM) of 1% and an inhibition at 1 µM ([5]; 1000 nM) of -1%. The inhibition at 0.01 µM ([6]; 10 nM) was -7%, the inhibition at 0.1 µM ([6]; 100 nM) was -2% and the inhibition at 1 µM ([6]; 1000 nM) was -4%. It also gave an inhibition at 0.01 µM ([7]; 10 nM) of -7%, an inhibition at 0.1 µM ([7]; 100 nM) of -5% and an inhibition at 1 µM ([7]; 1000 nM) of -5%. It also gave an inhibition at 0.01 µM ([8]; 10 nM) of 2%, an inhibition at 0.1 µM ([8]; 100 nM) of 4% and an inhibition at 1 µM ([8]; 1000 nM) of 8%.
